Laboratory results published in the NIST ThermoML archive (doi:10.1021/je5005752).
Several values for one entry are separate records, joined by “and”; a condition that tells them apart may be missing. Equal entries are not always repeated.

Legend:
[1] = 101 kPa, Liquid; for viscosity: Falling or rolling sphere viscometry; for mass density: Vibrating tube method
[2] = xn = mol fraction of the nth substance listed; conditions: 101 kPa, Liquid, x2 = 0; for viscosity: Falling or rolling sphere viscometry; for mass density: Vibrating tube method

CC(C)CO [2-methyl-1-propanol]
[1]
Conditions | mass density [kg/m3] | viscosity [mPa·s]
288.15 K | 805.88 | 4.829
293.15 K | 802.03 | 4.052
298.15 K | 798.16 | 3.431
303.15 K | 794.25 | 2.923
308.15 K | 790.31 | 2.505
313.15 K | 786.31 | 2.161
318.15 K | 782.26 | 1.876
323.15 K | 778.14 | 1.652

CCCCO [butan-1-ol] + CCCC(=O)OCC
[2]
Conditions | mass density [kg/m3] | viscosity [mPa·s]
288.15 K | 813.46 | 3.365
293.15 K | 809.66 | 2.913
298.15 K | 805.84 | 2.563
303.15 K | 801.99 | 2.257
308.15 K | 798.12 | 1.994
313.15 K | 794.22 | 1.779
318.15 K | 790.28 | 1.576
323.15 K | 786.29 | 1.422

CCCO [propan-1-ol]
[1]
Conditions | mass density [kg/m3] | viscosity [mPa·s]
288.15 K | 807.75 | 2.514
293.15 K | 803.77 | 2.208
298.15 K | 799.76 | 1.95
303.15 K | 795.72 | 1.727
308.15 K | 791.64 | 1.542
313.15 K | 787.52 | 1.378
318.15 K | 783.36 | 1.236
323.15 K | 779.14 | 1.124

CCCO [propan-1-ol] + CCCC(=O)OCC
[2]
Conditions | mass density [kg/m3] | viscosity [mPa·s]
288.15 K | 807.75 | 2.514
293.15 K | 803.77 | 2.208
298.15 K | 799.76 | 1.95
303.15 K | 795.72 | 1.727
308.15 K | 791.64 | 1.542
313.15 K | 787.52 | 1.378
318.15 K | 783.36 | 1.236
323.15 K | 779.14 | 1.124

CCCC(=O)OCC [ethyl butanoate]
[1]
Conditions | mass density [kg/m3] | viscosity
288.15 K | 884.16 | 0.7224 mPa·s
293.15 K | 878.9 | 0.6808 mPa·s
298.15 K | 873.62 | 0.643 mPa·s
303.15 K | 868.33 | 0.6072 mPa·s
308.15 K | 863.02 | 0.5736 mPa·s
313.15 K | 857.7 | 0.5424 mPa·s and 0.5425 mPa·s
318.15 K | 852.36 | 0.5132 mPa·s
323.15 K | 847 | 0.487 mPa·s

CC(C)CO [2-methyl-1-propanol] + CCCC(=O)OCC
[2]
Conditions | mass density [kg/m3] | viscosity [mPa·s]
288.15 K | 805.88 | 4.829
293.15 K | 802.03 | 4.052
298.15 K | 798.16 | 3.431
303.15 K | 794.25 | 2.923
308.15 K | 790.31 | 2.505
313.15 K | 786.31 | 2.161
318.15 K | 782.26 | 1.876
323.15 K | 778.14 | 1.652
